Legend:
[1] = molecular target: T1, AtGTR2 (Arabidopsis thaliana, UniProt Q9LV10); assay: Substrate-induced currents in voltage-clamped Xenopus oocytes expressing AtGTR2; assay type: cell-based
T1 construct: expressed in transfected cells; host or cells: Xenopus oocytes injected with in vitro transcribed cRNA (vector pNB1u)
T1 sequence (Q9LV10 1-616): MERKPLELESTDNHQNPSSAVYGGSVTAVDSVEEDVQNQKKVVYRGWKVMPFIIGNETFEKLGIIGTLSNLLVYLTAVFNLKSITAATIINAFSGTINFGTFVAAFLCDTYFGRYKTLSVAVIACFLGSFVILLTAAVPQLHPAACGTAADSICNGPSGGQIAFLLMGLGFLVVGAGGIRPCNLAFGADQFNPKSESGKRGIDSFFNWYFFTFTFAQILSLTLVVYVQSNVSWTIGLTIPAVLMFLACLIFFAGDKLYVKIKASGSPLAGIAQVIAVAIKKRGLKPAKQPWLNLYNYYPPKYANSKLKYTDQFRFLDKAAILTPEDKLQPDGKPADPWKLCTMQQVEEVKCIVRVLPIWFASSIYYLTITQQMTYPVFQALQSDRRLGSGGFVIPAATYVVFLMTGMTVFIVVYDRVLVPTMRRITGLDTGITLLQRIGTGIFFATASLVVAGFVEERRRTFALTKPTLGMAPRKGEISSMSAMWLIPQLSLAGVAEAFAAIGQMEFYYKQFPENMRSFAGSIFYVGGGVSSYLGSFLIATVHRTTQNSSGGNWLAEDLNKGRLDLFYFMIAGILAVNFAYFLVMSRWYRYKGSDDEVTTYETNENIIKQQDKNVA
Description: FIG. 3: Biochemical analysis of AtGTR1 and 2 mediated GSL transport in Xenopus oocytes. A and B, pH dependence of AtGTR-mediated GSL transport. A, AtGTR2 mediated 4-MTB uptake measured by LC-MS analysis of oocyte extracts, n=3 oocytes. B, AtGTR1 currents induced by 1 mM 4-MTB were measured at different membrane potentials at pH 5 ([…]), pH 6 (♦), and pH 7 (▴). Currents were normalized to the current induced at pH 5 at −60 mV, error bars are SD, n=4 oocytes. C and D, kinetic analysis of AtGTR-mediated glucosinolate transport. Normalized glucosinolate dependent currents at a membrane potential of −60 mV are plotted against 4-MTB concentrations, line indicates a fit of the Michaelis-Menten equation to the data; error bars are SD. For AtGTR1 (n=6 oocytes); For AtGTR2 (n=5 oocytes). Each oocyte-dataset were normalized to current elicited at 100 μM 4-MTB. E and F, substrate specificity of AtGTRs. E, AtGTR1 and AtGTR2 uptake of 0.04 mM C-14 labeled pOHBG at pH 5 in the presence of 2 mM 4-MTB, 2 mM NO3^−, 2 mM glucose+2 mM SO4^−−, or a solution of 2 mM Ala-His+2 mM Asp-Ala+2 mM Gly-Leu+2 mM Ala-Phe+2 mM Gly-Glu+2 mM Gly-Gly-Gly, error bars are SD, n=8 oocytes. F, AtGTR1 currents induced by endogenous and exogenous glucosinolates, representative positive, negative and neutral dipeptides and two tripeptides Currents were normalized to the current induced by 100 μM 4-MTB at pH 5 clamped at −60 mV, error bars are SD, n=4 oocytes.
When current recordings were performed on oocytes expressing, respectively, AtGTR1 and AtGTR2 exposed to 100 μM 4-MTB at pH 5 and voltage clamped at −50 mV elicited inward currents in the 30 nA range. This indicates a net influx of positive ions through the AtGTRs upon exposure to GSLs. GSL-induced inward currents were voltage dependent increasing with hyperpolarizing membrane potential within the range of +30 to −120 mV (FIGS. 3B and F). […] This observation was also noticeable in substrate dependent transport rates measured by direct LC-MS detection of GSL uptake.

[2] = molecular target: T1, AtGTR2; assay: Uptake of C14-labeled pOHBG in AtGTR2 expressing oocytes in presence of excess competitor; assay type: cell-based; details: 50× excess unlabeled competitor, AtGTR2, pH 5
Description: FIG. 3: Biochemical analysis of AtGTR1 and 2 mediated GSL transport in Xenopus oocytes. A and B, pH dependence of AtGTR-mediated GSL transport. A, AtGTR2 mediated 4-MTB uptake measured by LC-MS analysis of oocyte extracts, n=3 oocytes. B, AtGTR1 currents induced by 1 mM 4-MTB were measured at different membrane potentials at pH 5 ([…]), pH 6 (♦), and pH 7 (▴). Currents were normalized to the current induced at pH 5 at −60 mV, error bars are SD, n=4 oocytes. C and D, kinetic analysis of AtGTR-mediated glucosinolate transport. […]
The substrate specificity investigations were extended to include substrates previously identified for the NRT/PTR transporter family namely di- and tripeptides and nitrate. […] However, perfusing with 1 mM NO3^− did result in currents but these amounted only to 1/10th of currents measured when perfusing with 100 μM 4-MTB (FIG. 3F). […]
For assays with radiolabeled substrates, single oocytes were ruptured in 100 μl 10% SDS in 4 ml scintillation vials by shaking for 20-30 minutes. 2.5 ml EcoScint™ scintillation fluid (National Diagnostics) was added, and imported compounds quantified by scintillation counting. For assays with unlabeled substrates, oocyte extracts were analysed by LC-MS. Oocytes were analyzed in batches of 5 oocytes per repetition. […]

CSCCCC/C(=N/OS(=O)(=O)O)S[C@@H]1O[C@H](CO)[C@@H](O)[C@H](O)[C@H]1O [4-MTB, 4-methylthiobutyl glucosinolate]
inward current ([1]; 100 μM substrate, pH 5, voltage clamped at −50 mV, AtGTR2): ~30 nA
substrate dependent transport rate at 500 μM, lower than at 250 μM and 1 mM ([1]; AtGTR2, 500 μM 4-MTB): 25%
Km ([1]; pH 5, clamped at −60 mV, Michaelis-Menten, AtGTR2): 18.7 ± 4.2 µM
effect on uptake of 40 μM C14-labeled pOHBG [2]: reduced the uptake of pOHBG to background levels

— patent publication US20140137294A1, “GLUCOSINOLATE TRANSPORTER PROTEIN AND USES THEREOF” (UNIVERSITY OF COPENHAGEN, priority 2010, published 2014)
